Literature values, collected in US10500182B2, “Compositions of ketogenic sources, micronutrients and phytochemicals for prophylaxis and mitigation of migraine headache” (priority 2018, dated 2019).

Columns and labels:
migraine [1] = settings: oral and intravenous supplementation, migraineurs
migraine [2] = settings: ten percent solution applied topically to the forehead and temples

Structure (SMILES)	reduction of migraine frequency and severity (migraine [1])	migraine pain and nausea (migraine [2])
[Mg+2] [magnesium, Magnesium]	more than 40%	–
CC1CCC(C(C)C)C(O)C1 (centres unmarked) [menthol]	–	effective at terminating migraine pain and easing nausea
